Legend:
[1] = target: Serine/threonine-protein kinase PknB (Mycobacterium tuberculosis) (UniProt P9WI81); assay: Inhibition of Mycobacterium tuberculosis PKNB at 10 uM
[2] = target: Cyclin-dependent kinase 18 (Homo sapiens) (UniProt Q07002); assay: Inhibition of PCTK3 at 10 uM; settings: values are per cent of control
[3] = target: Tyrosine-protein kinase Lck (Homo sapiens) (UniProt P06239); assay: Inhibition of LCK at 10 uM; values are per cent of control
[4] = target: Serine/threonine-protein kinase 33 (Homo sapiens) (UniProt Q9BYT3); assay: Inhibition of STK33 at 10 uM
[5] = target: Mitogen-activated protein kinase kinase kinase kinase 3 (Homo sapiens) (UniProt Q8IVH8); assay: Inhibition of MAP4K3 at 10 uM; values are per cent of control
[6] = target: Tyrosine-protein kinase ZAP-70 (Homo sapiens) (UniProt P43403); assay: Inhibition of ZAP70 at 10 uM; settings: values are per cent of control
[7] = target: Mitogen-activated protein kinase 6 (Homo sapiens) (UniProt Q16659); assay: Inhibition of ERK3 at 10 uM; settings: values are per cent of control
[8] = target: Receptor tyrosine-protein kinase erbB-2 (Homo sapiens) (UniProt P04626); assay: Inhibition of ERBB2 at 10 uM; values are per cent of control
[9] = target: Tyrosine-protein kinase Fer (Homo sapiens) (UniProt P16591); assay: Inhibition of FER at 10 uM; settings: values are per cent of control
[10] = target: Epidermal growth factor receptor (Homo sapiens) (UniProt P04626+P00533+Q15303+P21860); assay: Inhibition of EGFR L747-T751del, Sins mutant at 10 uM; values are per cent of control
[11] = target: Myosin-IIIb (Homo sapiens) (UniProt Q8WXR4); assay: Inhibition of MYO3B at 10 uM
[12] = target: Serine/threonine-protein kinase PRP4 homolog (Homo sapiens) (UniProt Q13523); assay: Inhibition of PRP4 at 10 uM
[13] = target: Phosphatidylinositol 4,5-bisphosphate 3-kinase catalytic subunit gamma isoform (Homo sapiens) (UniProt P48736); assay: Inhibition of PIK3CG at 10 uM
[14] = target: Serine/threonine-protein kinase B-raf (Homo sapiens) (UniProt P15056); assay: Inhibition of BRAF at 10 uM; settings: values are per cent of control
[15] = target: Serine/threonine-protein kinase Chk2 (Homo sapiens) (UniProt O96017); assay: Inhibition of CHEK2 at 10 uM; values are per cent of control
[16] = target: Serine/threonine-protein kinase pim-2 (Homo sapiens) (UniProt Q9P1W9); assay: Inhibition of PIM2 at 10 uM
[17] = target: cGMP-dependent protein kinase 2 (Homo sapiens) (UniProt Q13237); assay: Inhibition of PRKG2 at 10 uM
[18] = target: Serine/threonine-protein kinase Sgk3 (Homo sapiens) (UniProt Q96BR1); assay: Inhibition of SGK3 at 10 uM
[19] = target: LIM domain kinase 1 (Homo sapiens) (UniProt P53667); assay: Inhibition of LIMK1 at 10 uM; settings: values are per cent of control
[20] = target: Serine/threonine-protein kinase Nek4 (Homo sapiens) (UniProt P51957); assay: Inhibition of NEK4 at 10 uM
[21] = tested on: Phosphatidylinositol 4,5-bisphosphate 3-kinase catalytic subunit alpha isoform (Homo sapiens), P42336 [E545A]; assay: Inhibition of PIK3CA E545A mutant at 10 uM
[22] = target: High affinity nerve growth factor receptor (Homo sapiens) (UniProt P04629); assay: Inhibition of TRKA at 10 uM; values are per cent of control
[23] = target: Rho-associated protein kinase 1 (Homo sapiens) (UniProt Q13464); assay: Inhibition of ROCK1 at 10 uM
[24] = target: Myotonin-protein kinase (Homo sapiens) (UniProt Q09013); assay: Inhibition of DMPK at 10 uM; settings: values are per cent of control
[25] = target: Dual specificity tyrosine-phosphorylation-regulated kinase 1B (Homo sapiens) (UniProt Q9Y463); assay: Inhibition of DYRK1B at 10 uM; settings: values are per cent of control
[26] = target: Serine/threonine-protein kinase 26 (Homo sapiens) (UniProt Q9P289); assay: Inhibition of MST4 at 10 uM
[27] = target: Serine/threonine-protein kinase OSR1 (Homo sapiens) (UniProt O95747); assay: Inhibition of OSR1 at 10 uM
[28] = target: Insulin-like growth factor 1 receptor (Homo sapiens) (UniProt P08069); assay: Inhibition of IGF1R at 10 uM; settings: values are per cent of control
[29] = target: Cyclin-dependent kinase 11A (Homo sapiens) (UniProt Q9UQ88); assay: Inhibition of CDC2L2 at 10 uM; settings: values are per cent of control
[30] = tested on: eIF-2-alpha kinase GCN2 (Homo sapiens), Q9P2K8 [S808G]; assay: Inhibition of GCN2 Domain2 S808G mutant at 10 uM; settings: values are per cent of control
[31] = target: Aurora kinase C (Homo sapiens) (UniProt Q9UQB9); assay: Inhibition of AURKC at 10 uM; settings: values are per cent of control
[32] = target: Receptor-interacting serine/threonine-protein kinase 4 (Homo sapiens) (UniProt P57078); assay: Inhibition of RIPK4 at 10 uM
[33] = target: Tyrosine-protein kinase receptor UFO (Homo sapiens) (UniProt P30530); assay: Inhibition of AXL at 10 uM; settings: values are per cent of control
[34] = target: Tyrosine-protein kinase JAK2 (Homo sapiens) (UniProt O60674); assay: Inhibition of JAK2 JH1 catalytic domain at 10 uM; values are per cent of control
[35] = target: Serine/threonine-protein kinase 4 (Homo sapiens) (UniProt Q13043); assay: Inhibition of MST1 at 10 uM
[36] = tested on: Fibroblast growth factor receptor 3 (Homo sapiens), P22607 [G697C]; assay: Inhibition of FGFR3 G697C mutant at 10 uM; settings: values are per cent of control
[37] = tested on: Epidermal growth factor receptor (Homo sapiens), P00533 [T790M]; assay: Inhibition of EGFR T790M mutant at 10 uM; values are per cent of control
[38] = target: Tyrosine-protein kinase receptor TYRO3 (Homo sapiens) (UniProt Q06418); assay: Inhibition of TYRO3 at 10 uM; settings: values are per cent of control
[39] = target: NT-3 growth factor receptor (Homo sapiens) (UniProt Q16288); assay: Inhibition of TRKC at 10 uM; settings: values are per cent of control
[40] = tested on: Epidermal growth factor receptor (Homo sapiens), P00533 [L858R,T790M]; assay: Inhibition of EGFR L858R, T790M mutant at 10 uM; values are per cent of control
[41] = target: Dual specificity mitogen-activated protein kinase kinase 3 (Homo sapiens) (UniProt P46734); assay: Inhibition of MEK3 at 10 uM; settings: values are per cent of control

Sequence of Myotonin-protein kinase (Homo sapiens) (Q09013 whole entry): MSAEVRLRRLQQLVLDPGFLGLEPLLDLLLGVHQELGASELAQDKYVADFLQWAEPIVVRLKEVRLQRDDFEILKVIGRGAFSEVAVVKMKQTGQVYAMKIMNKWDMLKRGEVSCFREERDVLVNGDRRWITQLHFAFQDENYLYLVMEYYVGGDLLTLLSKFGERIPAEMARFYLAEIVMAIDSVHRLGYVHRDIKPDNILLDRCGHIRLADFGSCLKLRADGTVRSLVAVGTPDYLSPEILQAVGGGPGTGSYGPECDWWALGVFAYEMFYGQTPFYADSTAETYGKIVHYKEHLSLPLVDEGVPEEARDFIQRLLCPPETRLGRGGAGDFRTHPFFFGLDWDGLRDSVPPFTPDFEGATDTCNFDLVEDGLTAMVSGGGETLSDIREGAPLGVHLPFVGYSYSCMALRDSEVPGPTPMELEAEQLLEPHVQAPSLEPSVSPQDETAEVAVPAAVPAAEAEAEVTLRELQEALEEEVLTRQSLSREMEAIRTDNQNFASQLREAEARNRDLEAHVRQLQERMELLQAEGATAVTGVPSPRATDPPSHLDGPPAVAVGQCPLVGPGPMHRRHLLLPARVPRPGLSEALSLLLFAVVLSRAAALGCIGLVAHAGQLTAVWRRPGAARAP
Sequence of Phosphatidylinositol 4,5-bisphosphate 3-kinase catalytic subunit alpha isoform (Homo sapiens), P42336 [E545A] (P42336 whole entry E545A, canonical isoform): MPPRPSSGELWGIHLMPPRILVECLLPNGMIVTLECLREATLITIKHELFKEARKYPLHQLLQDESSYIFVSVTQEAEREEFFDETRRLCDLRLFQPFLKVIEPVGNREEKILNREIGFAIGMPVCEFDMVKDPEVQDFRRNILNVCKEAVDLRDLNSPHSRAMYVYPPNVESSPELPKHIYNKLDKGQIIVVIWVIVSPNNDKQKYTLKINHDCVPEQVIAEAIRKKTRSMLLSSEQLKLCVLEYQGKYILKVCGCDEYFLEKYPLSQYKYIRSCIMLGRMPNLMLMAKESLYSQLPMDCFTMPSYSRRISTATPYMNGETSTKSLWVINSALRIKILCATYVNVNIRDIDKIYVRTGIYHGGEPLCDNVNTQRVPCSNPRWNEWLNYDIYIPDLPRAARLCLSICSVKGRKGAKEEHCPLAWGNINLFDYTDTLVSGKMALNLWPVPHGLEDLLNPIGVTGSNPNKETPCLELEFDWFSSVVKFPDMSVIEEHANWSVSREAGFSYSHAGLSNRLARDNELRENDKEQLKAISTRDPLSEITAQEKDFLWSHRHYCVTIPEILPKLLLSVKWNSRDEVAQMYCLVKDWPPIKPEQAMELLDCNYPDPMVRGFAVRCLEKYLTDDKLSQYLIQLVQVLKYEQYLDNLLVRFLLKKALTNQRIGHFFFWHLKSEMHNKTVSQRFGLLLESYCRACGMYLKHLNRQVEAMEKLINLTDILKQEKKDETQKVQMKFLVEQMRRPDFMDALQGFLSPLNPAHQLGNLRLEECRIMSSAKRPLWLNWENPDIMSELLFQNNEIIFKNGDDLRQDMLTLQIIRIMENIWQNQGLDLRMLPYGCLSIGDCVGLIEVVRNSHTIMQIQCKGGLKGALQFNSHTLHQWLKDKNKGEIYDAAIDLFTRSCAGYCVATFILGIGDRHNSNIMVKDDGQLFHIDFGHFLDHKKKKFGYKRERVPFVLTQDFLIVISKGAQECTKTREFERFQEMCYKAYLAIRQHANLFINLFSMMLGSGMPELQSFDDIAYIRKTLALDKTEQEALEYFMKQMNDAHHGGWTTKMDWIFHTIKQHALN
Sequence of Receptor-interacting serine/threonine-protein kinase 4 (Homo sapiens) (P57078 whole entry): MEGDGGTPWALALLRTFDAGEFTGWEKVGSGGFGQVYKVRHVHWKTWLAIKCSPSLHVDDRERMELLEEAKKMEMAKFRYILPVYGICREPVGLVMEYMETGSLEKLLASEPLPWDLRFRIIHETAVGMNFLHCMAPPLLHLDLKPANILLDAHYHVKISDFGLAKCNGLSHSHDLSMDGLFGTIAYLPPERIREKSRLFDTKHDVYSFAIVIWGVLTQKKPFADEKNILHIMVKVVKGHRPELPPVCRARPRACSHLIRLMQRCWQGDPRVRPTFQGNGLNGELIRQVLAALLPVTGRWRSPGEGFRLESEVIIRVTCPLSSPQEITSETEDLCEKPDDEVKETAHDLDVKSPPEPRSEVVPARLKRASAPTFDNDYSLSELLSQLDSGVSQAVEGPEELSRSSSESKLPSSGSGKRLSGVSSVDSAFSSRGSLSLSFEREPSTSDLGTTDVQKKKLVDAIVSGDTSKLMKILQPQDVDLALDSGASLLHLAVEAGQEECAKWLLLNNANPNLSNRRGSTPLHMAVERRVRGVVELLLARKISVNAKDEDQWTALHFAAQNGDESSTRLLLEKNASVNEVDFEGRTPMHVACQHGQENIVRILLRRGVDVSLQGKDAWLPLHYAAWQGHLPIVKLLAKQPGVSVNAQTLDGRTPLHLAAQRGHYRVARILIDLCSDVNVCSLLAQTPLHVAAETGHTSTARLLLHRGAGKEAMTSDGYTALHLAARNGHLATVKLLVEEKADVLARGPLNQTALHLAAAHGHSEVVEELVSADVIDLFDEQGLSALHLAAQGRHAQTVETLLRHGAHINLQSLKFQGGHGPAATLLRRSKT
Sequence of High affinity nerve growth factor receptor (Homo sapiens) (P04629 33-796 limits assumed): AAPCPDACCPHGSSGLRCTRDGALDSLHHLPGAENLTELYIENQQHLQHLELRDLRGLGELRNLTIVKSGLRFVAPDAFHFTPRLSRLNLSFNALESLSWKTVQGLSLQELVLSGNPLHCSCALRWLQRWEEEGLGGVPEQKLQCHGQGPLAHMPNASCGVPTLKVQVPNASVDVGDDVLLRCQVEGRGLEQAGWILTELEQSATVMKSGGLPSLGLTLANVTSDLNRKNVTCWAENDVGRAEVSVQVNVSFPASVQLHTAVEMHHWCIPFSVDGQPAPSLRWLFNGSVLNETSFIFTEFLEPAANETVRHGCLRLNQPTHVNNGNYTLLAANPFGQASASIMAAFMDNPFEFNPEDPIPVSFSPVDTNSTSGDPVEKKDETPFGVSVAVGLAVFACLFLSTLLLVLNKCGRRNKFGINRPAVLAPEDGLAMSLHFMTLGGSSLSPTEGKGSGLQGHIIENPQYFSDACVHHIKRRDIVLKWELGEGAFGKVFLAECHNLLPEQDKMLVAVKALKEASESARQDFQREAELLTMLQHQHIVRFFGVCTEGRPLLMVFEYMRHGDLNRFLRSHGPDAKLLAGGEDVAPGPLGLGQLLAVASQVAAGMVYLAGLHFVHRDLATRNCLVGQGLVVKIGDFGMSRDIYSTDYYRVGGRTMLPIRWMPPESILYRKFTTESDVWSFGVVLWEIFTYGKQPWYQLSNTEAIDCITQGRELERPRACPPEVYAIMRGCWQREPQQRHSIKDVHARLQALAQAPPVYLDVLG
Sequence of Tyrosine-protein kinase receptor UFO (Homo sapiens) (P30530 whole entry, the tested form may be a part): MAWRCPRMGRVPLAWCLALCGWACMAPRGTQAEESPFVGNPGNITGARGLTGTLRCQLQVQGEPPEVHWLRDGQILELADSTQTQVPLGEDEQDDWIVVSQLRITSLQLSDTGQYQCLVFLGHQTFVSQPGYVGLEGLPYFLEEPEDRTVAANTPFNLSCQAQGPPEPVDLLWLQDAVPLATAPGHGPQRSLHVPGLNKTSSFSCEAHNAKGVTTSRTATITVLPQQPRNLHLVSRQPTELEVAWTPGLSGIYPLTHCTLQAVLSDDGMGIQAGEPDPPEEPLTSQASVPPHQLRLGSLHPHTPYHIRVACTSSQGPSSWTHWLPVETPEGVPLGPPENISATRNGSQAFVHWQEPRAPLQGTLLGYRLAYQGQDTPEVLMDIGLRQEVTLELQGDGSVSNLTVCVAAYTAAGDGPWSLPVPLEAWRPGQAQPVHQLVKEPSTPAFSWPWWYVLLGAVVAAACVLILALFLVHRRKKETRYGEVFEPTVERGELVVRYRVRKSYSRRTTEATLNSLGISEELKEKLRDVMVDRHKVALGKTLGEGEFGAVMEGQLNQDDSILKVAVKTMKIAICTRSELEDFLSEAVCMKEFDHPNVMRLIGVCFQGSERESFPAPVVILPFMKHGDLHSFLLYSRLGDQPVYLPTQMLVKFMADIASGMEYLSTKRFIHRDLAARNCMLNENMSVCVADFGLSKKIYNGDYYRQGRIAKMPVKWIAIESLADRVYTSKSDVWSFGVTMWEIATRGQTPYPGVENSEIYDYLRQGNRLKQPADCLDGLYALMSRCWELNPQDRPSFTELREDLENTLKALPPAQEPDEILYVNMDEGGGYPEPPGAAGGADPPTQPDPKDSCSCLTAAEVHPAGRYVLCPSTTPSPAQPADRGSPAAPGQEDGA
Sequence of Dual specificity tyrosine-phosphorylation-regulated kinase 1B (Homo sapiens) (Q9Y463 whole entry, looked up): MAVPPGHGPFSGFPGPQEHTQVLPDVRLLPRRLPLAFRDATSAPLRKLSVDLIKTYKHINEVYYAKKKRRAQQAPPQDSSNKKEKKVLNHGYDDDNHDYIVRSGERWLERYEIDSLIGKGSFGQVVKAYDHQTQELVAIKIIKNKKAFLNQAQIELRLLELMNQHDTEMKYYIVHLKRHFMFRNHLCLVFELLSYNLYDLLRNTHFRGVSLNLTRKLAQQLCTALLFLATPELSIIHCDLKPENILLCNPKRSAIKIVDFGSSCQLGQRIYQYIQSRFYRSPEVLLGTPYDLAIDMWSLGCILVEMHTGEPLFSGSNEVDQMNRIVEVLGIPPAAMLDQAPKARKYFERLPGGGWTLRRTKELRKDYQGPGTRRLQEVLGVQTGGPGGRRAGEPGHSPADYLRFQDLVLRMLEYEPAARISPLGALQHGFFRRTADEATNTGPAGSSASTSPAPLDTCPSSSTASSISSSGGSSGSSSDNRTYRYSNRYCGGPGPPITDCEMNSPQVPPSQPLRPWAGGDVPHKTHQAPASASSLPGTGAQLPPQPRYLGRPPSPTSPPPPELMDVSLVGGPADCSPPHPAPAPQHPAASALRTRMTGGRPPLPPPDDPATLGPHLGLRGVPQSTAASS

For `CCN1CCN(Cc2ccc(NC(=O)c3ccc(C)c(C#Cc4cnc5[nH]ccc5c4)c3)cc2C(F)(F)F)CC1`, the inhibition [1] was 98%, the residual binding, % of control [2] was 12% and the level, % of control [3] was 0.1%. The inhibition [4] was 6.8%, the level, % of control [5] was 1.8% and the residual binding, % of control [6] was 28%. It also gave a residual binding, % of control [7] of 100%, a level, % of control [8] of 0.3% and a residual binding, % of control [9] of 2.6%. It also gave a level, % of control [10] of 0.4%, an inhibition [11] of 0% and an inhibition [12] of 84%. For the same molecule, the inhibition [13] was 100%, the residual binding, % of control [14] was 0.45% and the level, % of control [15] was 22%. The inhibition [16] was 100%, the inhibition [17] was 77% and the inhibition [18] was 11%. For the same molecule, the residual binding, % of control [19] was 1.2%, the inhibition [20] was 14% and the inhibition [21] was 93%. For the same molecule, the level, % of control [22] was 0.3%, the inhibition [23] was 60% and the residual binding, % of control [24] was 27%. It also gave a residual binding, % of control [25] of 15%, an inhibition [26] of 11% and an inhibition [27] of 60%. The residual binding, % of control [28] was 95%, the residual binding, % of control [29] was 0% and the residual binding, % of control [30] was 0.25%. The residual binding, % of control [31] was 11%, the inhibition [32] was 8% and the residual binding, % of control [33] was 0.1%. It also gave a level, % of control [34] of 3%, an inhibition [35] of 12% and a residual binding, % of control [36] of 0.15%. The level, % of control [37] was 13%, the residual binding, % of control [38] was 38% and the residual binding, % of control [39] was 0.35%. The level, % of control [40] was 100% and the residual binding, % of control [41] was 67%.
For `CCN1CCN(Cc2ccc(NC(=O)c3ccc(C)c(C#Cc4cccnc4)c3)cc2C(F)(F)F)CC1`, the inhibition [1] was 87%, the residual binding, % of control [2] was 6.2% and the level, % of control [3] was 0.05%. For the same molecule, the inhibition [4] was 14%, the level, % of control [5] was 2.6% and the residual binding, % of control [6] was 62%. It also gave a residual binding, % of control [7] of 100%, a level, % of control [8] of 0.5% and a residual binding, % of control [9] of 11%. For the same molecule, the level, % of control [10] was 0.45%, the inhibition [11] was 0% and the inhibition [12] was 54%. The inhibition [13] was 100%, the residual binding, % of control [14] was 0.05% and the level, % of control [15] was 40%. For the same molecule, the inhibition [16] was 100%, the inhibition [17] was 97% and the inhibition [18] was 6.2%. The residual binding, % of control [19] was 3%, the inhibition [20] was 6.4% and the inhibition [21] was 93%. The level, % of control [22] was 0.35%, the inhibition [23] was 43% and the residual binding, % of control [24] was 100%. The residual binding, % of control [25] was 47%, the inhibition [26] was 21% and the inhibition [27] was 48%. It also gave a residual binding, % of control [28] of 100%, a residual binding, % of control [29] of 1.6% and a residual binding, % of control [30] of 1.3%. The residual binding, % of control [31] was 13%, the inhibition [32] was 48% and the residual binding, % of control [33] was 2.9%. It also gave a level, % of control [34] of 3%, an inhibition [35] of 23% and a residual binding, % of control [36] of 0.05%. The level, % of control [37] was 24%, the residual binding, % of control [38] was 100% and the residual binding, % of control [39] was 0.35%. For the same molecule, the level, % of control [40] was 100% and the residual binding, % of control [41] was 86%.

Reference: ChEMBL document CHEMBL1177794, “Broad spectrum alkynyl inhibitors of T315I Bcr-Abl” (Bioorg Med Chem Lett, 2010)
